Reference: patent US20200010562A1, “NEW THERAPEUTIC STRATEGIES AGAINST BLOOD CANCER” (priority 2015, published 2020)
Where two headings read alike, the source gives them in different places.

Tests used:
[1] = system: MEC1; test: Survival/mortality of MEC1 in control or FMD medium; format: cell-based, human; settings: for effect of FMD medium on growth inhibitory effect of the drug: FMD vs control medium
[2] = system: MEC2; test: Survival/mortality of MEC2 in control or FMD medium; format: cell-based, human; settings: for effect of FMD medium on growth inhibitory effect of the drug: FMD vs control medium
[3] = system: L1210; test: Erythrosin B exclusion survival/mortality of L1210 in control or FMD medium; format: cell-based, murine
[4] = In vivo CLL model, spleen weight; design: species or system Rag2−/−γc−/− female mice; settings: fasted (STS) groups
Procedure: (§1) Eight-week-old Rag2−/−γ c−/− female mice were challenged intravenously (iv) via lateral tail veins with 10×10^6 MEC1 cells in 0.1 ml of saline through a 27-gauge needle, as previously described by Bertilaccio et al., (2010). Before injection, cells in log phase of growth were harvested and suspended in phosphate-buffered saline (PBS) at 100×10^6 cells/ml, and 100 μl (10×10^6 cells per mouse) was injected iv. All mice were gently warmed before intravenous injections to dilate the veins. Body weights were determined daily, and tumor progression was determined by blood smear. Animals were monitored every day for weight and general health conditions and were sacrificed when they experienced clinical signs of illness following the criteria approved and described in the protocol #742/2015—PR (see Animal Ethics Statement).
Animals were fasted for a total of 48 hours by complete deprivation of food but with free access to water. Mice were individually housed in a clean new cage to reduce cannibalism, coprophagy, and residual chow. Body weight was measured daily and immediately before and after fasting. […]
At the end of experimental procedure, peripheral blood (PB), peritoneal exudates and organs [spleen, kidneys, liver, lungs, and femoral bone marrow (BM)] were collected and analyzed either for FACS or morphological analyses. For all experimental group, spleen weight was measured (FIG. 21).

[5] = system: MEC1 cells; test: In vivo CLL model, FACS for human CD19/CD20/CD45 leukemic cells in tissues; design: species or system Rag2−/−γc−/− female mice; settings: in combination with STS; majority of analyzed tissues
Procedure: as §1
(§2) Animals were fasted for a total of 48 hours by complete deprivation of food but with free access to water. […] Body weight was measured daily and immediately before and after fasting. […]
For FACS analysis, after blocking fragment crystallizable receptors for 10 minutes at room temperature to avoid nonspecific binding of antibodies, cells from PB, BM, peritoneal exudates, and spleen were stained with PE-Vio770 anti-human CD19 antibody. FITC anti-human CD20 and TRITC anti-human CD45 anti-human, respectively (MACS Miltenyi Biotec) and analyzed with BD FACSCANTO II flow cytometer. […]

[6] = system: CD20; settings: rituximab-resistant cell lines in vitro; cited from earlier work
[7] = system: MEC1 cells; test: In vivo CLL model, histopathological analysis of organs (H&E); design: species or system Rag2−/−γc−/− female mice; settings: majority of organs
Procedure: as §1, §2
For morphological analysis, organs (BM, spleen, kidney, liver and lung) were formalin-fixed, paraffin-embedded, cut at 3-μm-thick sections, and stained with hematoxylin and eosin. Histologic sections were evaluated in a double-blinded fashion. […] For these mice groups, the morphology of analyzed organ was similar to the control ([…]).

[8] = system: primary embryonic mouse fibroblast (MEF); settings: 24 h, 10 μM
[9] = system: relapsed and refractory indolent lymphomas; settings: single agent; cited from earlier work
[10] = alone or in combination with low glucose/FCS (FMD)

O=C(/C=C/c1cccc(S(=O)(=O)Nc2ccccc2)c1)NO [Belinostat]
effect of FMD medium on growth inhibitory effect of the drug [1]: remarkably improved
effect of FMD medium on growth inhibitory effect of the drug [2]: remarkably improved
killing tumor cells [3]: very effective in killing tumor cells

CC(C)C[C@H](NC(=O)[C@H](Cc1ccccc1)NC(=O)c1cnccn1)B(O)O [Bortezomib]
spleen weight [4]: significantly lower
expression of human CD19, human CD20 and human CD45 [5]: significantly decreases
CD20 expression [6]: increases CD20 expression
effect of FMD medium on growth inhibitory effect of the drug [1]: remarkably improved
metastases and cluster of infiltration ([7]; ad lib): lesser expanse
metastases and cluster of infiltration ([7]; with STS): lesser expanse
effect of FMD medium on growth inhibitory effect of the drug [2]: remarkably improved
killing tumor cells [3]: very effective in killing tumor cells

COc1cc(/C=C/C(=O)CC(=O)/C=C/c2ccc(O)c(OC)c2)ccc1O [Curcumin]
reducing survival rates [3, 10]: did not show a strong efficiency

O=P1(N(CCCl)CCCl)NCCCO1 (stereo not drawn) [Cyclophosphamide]
killing tumor cells [3]: very effective in killing tumor cells

C[C@]12C=CC(=O)C=C1CC[C@@H]1[C@@H]2C(=O)C[C@@]2(C)[C@H]1CC[C@]2(O)C(=O)CO [Prednisone]
reducing survival rates [3, 10]: did not show a strong efficiency
effect on L1210 growth ([3]; independently of the application of the FMD): no or limited effect

C/C=C1\NC(=O)[C@H]2CSSCC/C=C/[C@H](CC(=O)N[C@H](C(C)C)C(=O)N2)OC(=O)[C@H](C(C)C)NC1=O [Romidepsin]
decrease of percentage of surviving cells [8]: about 50%
mortality rate [8]: about 12%
percentage of mortality [8]: 4%
survival rate [8]: about 77%

O=C1O[C@H]([C@@H](O)CO)C(O)=C1O [Vitamin C, L-Ascorbic acid]
reducing survival rates [3]: did not show a strong efficiency

(−)Epigallocatechin Gallate [EGCG]
reducing survival rates [3]: did not show a strong efficiency

Rituximab
overall response rate [9]: 50%
effect on cell survival and death [1]: very effective
effect on cell survival and death [2]: very effective
